# Assay results from patent publication US10259815B2, “Gabaergic ligands and their uses” (UWM Research Foundation, Inc., priority 2015, dated 2019).
# Entries after “also recorded” stand apart in the source; their conditions may differ.
# Experiments:
# [1] = Single-dose pharmacokinetics and brain concentrations, IV and IP, rats; type: in vivo, Sprague-Dawley rats
# Experimental: The single-dose pharmacokinetics were determined in femoral artery/vein cannulated Sprague-Dawley rats. The rats received a 1 mg/kg intravenous and 10 mg/kg oral gavage dose of compound. Blood samples were collected at 0.08 (IV only), 0.25, 0.5, 1, 2, 4, 8, 12, and 24 hours after initiation of compound administration. Plasma was obtained via centrifugation. Plasma samples were then analyzed by LC-MS, and pharmacokinetic parameters calculated using Watson (version 7.4; Thermo Fisher Scientific). Calculated parameters include clearance (Cl), volume of distribution (Vdss), area-under-the-curve (AUC), half-life (T½), maximum plasma concentration (Cmax), time of maximum concentration (Tmax), and bioavailability (% F).
# Male Sprague-Dawley rats were given either a 1 mg/kg […] dose or 10 mg/kg i.p. dose. Plasma concentrations were taken at 0.08, 0.25, 0.5, 1.0, 2, 4, 8, 12, and 24 hours (three rats per time point for each dose).
# Male Sprague-Dawley rats [2] = assay: Inverted screen test (muscle relaxation); type: in vivo
# Experimental: (§1) Results were analyzed using ANOVA (Dunnett's test: *P<0.05).
# The inverted screen test is used to measure whether or not a test compound induces muscle relaxation. When a test subject is placed on a wire screen which is then inverted, the reaction is to climb to the opposite side so they are no longer hanging upside down. If a compound promotes muscle relaxation, the test subjects will either fall off, or hang onto the screen without being able to climb to the opposite side.
# Rats were placed onto the top of a wire screen, which was then inverted so that the rats were hanging upside down. […] Results were analyzed using ANOVA (Dunnett's test: *P<0.05).
# Male Sprague-Dawley rats [3] = assay: PTZ-induced seizure threshold; type: in vivo
# Experimental: as §1
# After a pretreatment of test compound, MET was intravenously administered to a test subject until a convulsions were observed.
# Each animal was used only once and was euthanized post testing. Results were analyzed using ANOVA (Dunnett's test: *P<0.05).
# Male NIH Swiss mice = assay: Marble burying assay (anxiolytic); type: in vivo
# Experimental: Male NIH Swiss mice (n=10) were dosed i.p. with vehicle (1% carboxymethyl cellulose) or one of the test compounds (10 or 30 mg/kg) 30 minutes prior to being tested in the marble burying assay.
# The marble burying assay is designed to measure the anxiolytic-effect of a compound. When mice are nervous, they will bury marbles. As there becomes a decrease in amount of marbles buried, the better anxiolytic effect of a compound.
# The marble burying assay is used to determine the anxiolytic activity of a given compound. Mice are placed in a tub containing 20 marbles placed over a bed of sawdust. Defensive burying (Broekkamp 1986) is the natural reaction for the mice. When given an anxiolytic, such as diazepam, the mice are less likely to defensively bury the marbles.
# Experiments were carried out by the methods described in Li et al. (Life Sciences 2006, 78, 1933-1939). Separate groups of mice were used in these experiments and were conducted in a dimly lit testing room. After 60 min acclimation to the experimental room, mice were placed in a 17×28×12 cm high plastic tub with […] sawdust shavings (Harlan Sani-Chips, Harlan-Teklad, Indianapolis, Ind., USA) on the floor, which was covered with 20 blue marbles (1.5 cm diameter) placed in the center. […] The number of marbles buried (⅔ covered with sawdust) was counted and submitted to inter-observer reliability assessment.
# Male Sprague-Dawley rats [4] = assay: von Frey filament test in spinal nerve ligated (SNL) rats; type: in vivo
# Experimental: FIG. 11 is a graph of time versus withdrawal threshold for KRM-II-81, Gabapentin, and vehicle, showing the effect of KRM-II-81 on antihyperalgesia in the von Frey filament assay. Male Sprague-Dawley rats (n=5) were dosed i.p. either vehicle, KRM-II-81 (30 mg/kg), or gabapentin (50 mg/kg) and tested in the von Frey filament assay after undergoing SNL 90 days prior. Results were analyzed using ANOVA (Dunnett's test: *P<0.05).
# The von Frey filament test is used to test for antihyperalgesia, or an increased sensitivity to pain. […] The von Frey filaments are used to apply pressure to the forelimbs of test subjects at set amounts. When pressure becomes too great, the forelimb is withdrawn and the amount of force applied recorded. The spinal nerve ligation induced hyperalgesia, reducing the amount of force a limb can take before being withdrawn.
# Test compounds were given to test the effectiveness of combating the hyperalgesic effect of SNL. Male Sprague-Dawley rats went through SNL at least 90 days prior to the von Frey testing. Rats were first tested without given an injection to determine a baseline. Following baseline establishment, rats (n=5 for all groups) were dosed i.p. with vehicle (1% carboxymethyl cellulose), KRM-II-81 (30 mg/kg), or gabapentin (50 mg/kg). Subjects were then tested every hour for four hours to determine the antihyperalgesic effect of the test compounds. For testing, pressure using von Frey filaments was applied to the forelimb of the rat. Pressure was increased until the limb was withdrawn, and the amount of pressure was recorded.
# CYP2D6 = CYP2D6 (Homo sapiens, UniProt P10635); assay: CYP substrate assessment, CYP2D6
# CYP2C9 = CYP2C9 (Homo sapiens, UniProt P11712); assay: CYP substrate assessment, CYP2C9
# CYP2C9, sequence (P11712 whole entry): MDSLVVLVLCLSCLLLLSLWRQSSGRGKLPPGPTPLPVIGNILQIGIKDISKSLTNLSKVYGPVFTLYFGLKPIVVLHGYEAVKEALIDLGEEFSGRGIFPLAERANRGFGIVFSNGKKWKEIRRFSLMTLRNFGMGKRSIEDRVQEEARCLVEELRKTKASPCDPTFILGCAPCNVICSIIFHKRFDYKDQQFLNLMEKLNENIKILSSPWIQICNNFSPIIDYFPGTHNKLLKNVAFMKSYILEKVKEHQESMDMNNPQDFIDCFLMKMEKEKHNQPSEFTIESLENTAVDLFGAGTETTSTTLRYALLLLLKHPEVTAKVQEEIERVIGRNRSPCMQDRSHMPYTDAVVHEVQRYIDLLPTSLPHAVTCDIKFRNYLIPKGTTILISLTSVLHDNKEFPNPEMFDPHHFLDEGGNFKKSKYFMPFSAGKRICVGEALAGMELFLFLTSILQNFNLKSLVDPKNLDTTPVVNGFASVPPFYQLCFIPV
# CYP2D6, sequence (P10635 whole entry): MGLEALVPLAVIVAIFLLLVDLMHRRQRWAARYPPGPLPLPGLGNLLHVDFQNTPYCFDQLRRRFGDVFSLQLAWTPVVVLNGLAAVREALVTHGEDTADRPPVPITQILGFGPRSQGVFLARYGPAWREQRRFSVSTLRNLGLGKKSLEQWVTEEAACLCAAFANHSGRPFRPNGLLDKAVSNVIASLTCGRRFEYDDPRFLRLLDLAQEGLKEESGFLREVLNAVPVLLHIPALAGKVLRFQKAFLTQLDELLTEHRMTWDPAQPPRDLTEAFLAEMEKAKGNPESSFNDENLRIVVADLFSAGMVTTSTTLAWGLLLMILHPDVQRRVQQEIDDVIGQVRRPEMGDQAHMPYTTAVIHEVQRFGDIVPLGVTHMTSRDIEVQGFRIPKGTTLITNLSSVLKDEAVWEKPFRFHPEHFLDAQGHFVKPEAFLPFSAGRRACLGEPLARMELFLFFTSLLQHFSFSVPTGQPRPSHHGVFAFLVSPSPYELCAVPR
compound,measurement,setting,value
"C#Cc1ccc2c(c1)C(c1ccccn1)=NCc1c(-c3cnco3)ncn1-2 [KRM-II-81, 5-(8-Ethynyl-6-(pyridin-2-yl)-4H-benzo[f]imidazo[1,5-a][1,4]diazepin-3-yl)oxazole]",mean clearance,[1]; 1 mg/kg IV dose in rat,21.7 mL/min/kg
same,mean AUC,[1]; 10 mg/kg IP dose in rat,16.5 µM·h
same,mean IP T ½,[1]; 10 mg/kg IP dose in rat,3.1 h
same,mean bioavailability,[1]; 10 mg/kg IP dose in rat,69%
same,Cmax,"[1]; 10 mg/kg IP dose in rat, plasma",3.09 µM
same,half-life,"[1]; Sprague-Dawley, plasma, 1 mg/kg IV dose in rat, read-out: mean T ½ (converted)",84 min
same,Vd,"[1]; Sprague-Dawley, plasma, 1 mg/kg IV dose in rat, read-out: mean Vdss",1.4 L/kg
same,concentration at 1 h,"[1]; male, Sprague-Dawley, rat, brain, intraperitoneal, 10 mg/kg IP dose, 1 hour",6.63 µM
same,concentration at 4 h,"[1]; male, Sprague-Dawley, rat, brain, intraperitoneal, 10 mg/kg IP dose, 4 hour",2050 nM
same,Kp uu at 1 h,"[1]; male, Sprague-Dawley, rat, brain/plasma (unbound), 10 mg/kg IP dose, 1 hour",0.53
same,Kp uu at 4 h,"[1]; male, Sprague-Dawley, rat, brain/plasma (unbound), 10 mg/kg IP dose, 4 hour",0.67
same,muscle relaxation / motor impairment in inverted screen,"Male Sprague-Dawley rats [2]; i.p. 30 minutes prior, diazepam 3, 10, 30 mg/kg, KRM-II-81 10, 30, 60 mg/kg, HZ-166 30 mg/kg",Neither HZ-166 nor KRM-II-81 induced significant muscle relaxation
same,dose at which signs of muscle relaxation began to appear,"Male Sprague-Dawley rats [2]; i.p., inverted screen",60 mg/kg
same,dose of MET required for convulsion,"Male Sprague-Dawley rats [3]; pretreated with 10 mg/kg i.p., PTZ infused i.v.",71 mg/kg
same,effect on seizure threshold to PTZ,"Male Sprague-Dawley rats [3]; test compound 3 to 60 mg/kg, diazepam 0.1 to 1 mg/kg i.p.",significantly increased the seizure threshold to PTZ; also recorded: larger maximal effect
same,sedation observed in marble burying assay,Male NIH Swiss mice; 10 and 30 mg/kg i.p.,without observed signs of sedation
same,anxiolytic activity in marble burying assay,"Male NIH Swiss mice; mouse, in vivo",better anxiolytic than HZ-166; also recorded: good activity in the marble burying
same,statistical significance of antihyperalgesic effect,"Male Sprague-Dawley rats [4]; KRM-II-81 30 mg/kg at one hour, gabapentin 50 mg/kg",able to reach significance
same,"antihyperalgesic activity, von Frey after SNL","Male Sprague-Dawley rats [4]; KRM-II-81 30 mg/kg, gabapentin 50 mg/kg i.p.",active as antihyperalgesics
same,pain threshold (force before removing paw),"Male Sprague-Dawley rats [4]; from 1-2 hours, vehicle ˜5 g",~12 g
same,substrate of CYP2D6,CYP2D6,not found to be a substrate
same,substrate of CYP2C9,CYP2C9,not found to be a substrate
